# Structures can show the parent of a compound that is named as a salt.
row,melting point,Compound
1,266.5 to 266.7 °C,"Nc1nc(-c2ccco2)c2nnn(Cc3ccc(F)c([N+](=O)[O-])c3)c2n1 [Example 129, 3-(4-fluoro-3-nitrobenzyl)-7-(2-furyl)-3H-[1,2,3]triazolo[4,5-d]pyrimidine-5-amine]"
2,258.2 to 258.4 °C,"COc1ccc(C(=O)Cn2nnc3c(-c4ccco4)nc(N)nc32)cc1 [Example 229, 2-(5-amino-7-(2-furyl)-3H-[1,2,3]triazolo[4,5-d]pyrimidin-3-yl)-1-(4-methoxyphenyl)ethanone]"
3,265.9 to 266 °C,"Nc1cccc(Cn2nnc3c(-c4cccs4)nc(N)nc32)c1 [Example 48, 3-(3-aminobenzyl)-7-(2-thienyl)-3H-[1,2,3]triazolo[4,5-d]pyrimidine-5-amine]"
4,247.1 to 247.2 °C,"Cc1c(N)cccc1Cn1nnc2c(-c3ccco3)nc(N)nc21 [Example 89, 3-(3-amino-2-methylbenzyl)-7-(2-furyl)-3H-[1,2,3]triazolo[4,5-d]pyrimidine-5-amine]"
5,226.5 to 227.9 °C,"CC(C)c1cc(Cn2nnc3c(-c4ccco4)nc(N)nc32)nc(C(C)C)c1 [Example 199, 3-(4,6-diisopropyl-2-pyridylmethyl)-7-(2-furyl)-3H-[1,2,3]triazolo[4,5-d]pyrimidine-5-amine]"
6,209.9 to 210.1 °C,"Nc1nc(-c2ccco2)c2nnn(Cc3cccc(Cl)c3)c2n1 [Example 27, 3-(3-chlorobenzyl)-7-(2-furyl)-3H-[1,2,3]triazolo[4,5-d]pyrimidine-5-amine]"
7,210.4 to 210.5 °C,"Cc1ccc(-c2nc(N)nc3c2nnn3Cc2cccc(Cl)c2)o1 [Example 62, 3-(3-chlorobenzyl)-7-(5-methyl-2-furyl)-3H-[1,2,3]triazolo[4,5-d]pyrimidine-5-amine]"
8,> 300 °C (dec.),"Cc1cc(Cn2nnc3c(-c4ccco4)nc(N)nc32)c2[nH]ccc2c1 [Example 243, 7-(2-furyl)-3-(5-methyl-7-indolylmethyl)-3H-[1,2,3]triazolo[4,5-d]pyrimidine-5-amine]"
9,237.8 to 238 °C,"Cc1cc(Cn2nnc3c(-c4ccco4)nc(N)nc32)ccc1[N+](=O)[O-] [Example 94, 7-(2-furyl)-3-(3-methyl-4-nitrobenzyl)-3H-[1,2,3]triazolo[4,5-d]pyrimidine-5-amine]"
10,240.3 to 240.4 °C,"Nc1ccc(Cn2nnc3c(-c4ccco4)nc(N)nc32)cc1 [Example 141, 3-(4-aminobenzyl)-7-(2-furyl)-3H-[1,2,3]triazolo[4,5-d]pyrimidine-5-amine]"
11,285.7 to 285.9 °C,"Cc1nc(Cn2nnc3c(-c4ccco4)nc(N)nc32)cs1 [Example 100, 7-(2-furyl)-3-(2-methylthiazol-4-ylmethyl)-3H-[1,2,3]triazolo[4,5-d]pyrimidine-5-amine]"
12,209.7 to 209.9 °C,"COc1cc(Cn2nnc3c(-c4ccco4)nc(N)nc32)ccc1[N+](=O)[O-] [Example 133, 7-(2-furyl)-3-(3-methoxy-4-nitrobenzyl)-3H [1,2,3]triazolo[4,5-d]pyrimidine-5-amine]"
13,226.8 to 227.4 °C,"Nc1nc(-c2ccco2)c2nnn(Cc3ccc4[nH]ccc4c3)c2n1 [Example 153, 7-(2-furyl)-3-(5-indolylmethyl)-3H-[1,2,3]triazolo[4,5-d]pyrimidine-5-amine]"
14,216.7 to 218.4 °C,"CC(=O)NCc1ccccc1Cn1nnc2c(-c3ccco3)nc(N)nc21 [Example 178, N-(2-(5-amino-7-(2-furyl)-3H-[1,2,3]triazolo[4,5-d]pyrimidin-3-ylmethyl)benzyl)acetamide]"
15,219.3 °C,"Nc1nc(-c2ccco2)c2nnn(Cc3cc(F)ccc3N)c2n1 [Example 171, 3-(2-amino-5-fluorobenzyl)-7-(2-furyl)-3H-[1,2,3]triazolo[4,5-d]pyrimidine-5-amine]"
16,> 300 °C (dec.),"Nc1nc(-c2ccco2)c2nnn(Cc3ccc4nn[nH]c4c3)c2n1 [Example 158, 3-(1H-Benzotriazol-5-ylmethyl)-7-(2-furyl)-3H-[1,2,3]triazolo[4,5-d]pyrimidine-5-amine]"
17,195.1 to 195.2 °C,"CN(C)c1cccc(Cn2nnc3c(-c4ccco4)nc(N)nc32)c1 [Example 162, 3-(3-(N,N-dimethylamino)benzyl)-7-(2-furyl)-3H-[1,2,3]triazolo[4,5-d]pyrimidine-5-amine]"
18,235.9 to 237.8 °C,"COc1cc([N+](=O)[O-])ccc1Cn1nnc2c(-c3ccco3)nc(N)nc21 [Example 159, 7-(2-furyl)-3-(2-methoxy-4-nitrobenzyl)-3H-[1,2,3]triazolo[4,5-d]pyrimidine-5-amine]"
19,168.3 to 168.5 °C,"CSCc1cccc(Cn2nnc3c(-c4ccco4)nc(N)nc32)n1 [Example 234, 7-(2-furyl)-3-(6-methylthiomethyl-2-pyridylmethyl)-3H-[1,2,3]triazolo[4,5-d]pyrimidine-5-amine]"
20,178.7 to 179.3 °C,"Cc1ccc(-c2nc(N)nc3c2nnn3Cc2cccc(CNC(=O)OC(C)(C)C)c2)o1 [Example 73, tert-butyl N-(3-(5-amino-7-(5-methyl-2-furyl)-3H-[1,2,3]triazolo[4,5-d]pyrimidine-3-ylmethyl)benzyl)carbamate]"
21,162 to 162.6 °C,"COCCc1cccc(Cn2nnc3c(-c4ccco4)nc(N)nc32)n1 [Example 264, 7-(2-furyl)-3-(6-(2-methoxyethyl)-2-pyridylmethyl)-3H-[1,2,3]triazolo[4,5-d]pyrimidine-5-amine]"
22,178.4 to 179 °C,"Nc1nc(-c2ccco2)c2nnn(CCc3cccs3)c2n1 [Example 196, 7-(2-furyl)-3-(2-(2-thienylethyl))-3H-[1,2,3]triazolo[4,5-d]pyrimidine-5-amine]"
23,291.8 to 292 °C,"Cc1ccc(-c2nc(N)nc3[nH]nnc23)o1 [Example 19, 7-(5-Methyl-2-furyl)-1H-[1,2,3]triazolo[4,5-d]pyrimidine-5-amine]"
24,268.5 to 269.1 °C,"Cc1ccc(Cn2nnc3c(-c4ccco4)nc(N)nc32)cc1N [Example 90, 3-(3-amino-4-methylbenzyl)-7-(2-furyl)-3H-[1,2,3]triazolo[4,5-d]pyrimidine-5-amine]"
25,196.9 to 197.1 °C,"Nc1nc(-c2ccco2)c2nnn(Cc3ccccn3)c2n1 [Example 24, 7-(2-Furyl)-3-(2-pyridylmethyl)-3H-[1,2,3]triazolo[4,5-d]pyrimidine-5-amine]"
26,172.7 to 173.2 °C,"CCc1cc(Cn2nnc3c(-c4ccco4)nc(N)nc32)ccn1 [Example 136, 3-(2-ethyl-4-pyridylmethyl)-7-(2-furyl)-3H-[1,2,3]triazolo[4,5-d]pyrimidine-5-amine]"
27,146.7 to 149.3 °C,"CC(C)COCc1cccc(Cn2nnc3c(-c4ccco4)nc(N)nc32)n1 [Example 217, 7-(2-furyl)-3-(6-isobutyloxymethyl-2-pyridylmethyl)-3H-[1,2,3]triazolo[4,5-d]pyrimidine-5-amine]"
28,214.6 to 215.2 °C,"Cc1ccc(-c2nc(N)nc3c2nnn3Cc2ccccc2N)o1 (as salt: hydrochloride) [Example 74, 3-(2-aminobenzyl)-7-(5-methyl-2-furyl)-3H-[1,2,3]triazolo[4,5-d]pyrimidine-5-amine hydrochloride]"

# From US7589097B2, “Triazol[4,5-d] pyramidine derivatives and their use as purinergic receptor antagonists” (Vernalis Research Limited, priority 2001, dated 2009)
